According to patent US20220315621A1, “COMPOSITIONS AND METHODS FOR TREATING CNS DISORDERS” (priority 2017, published 2022):
Where two headings read alike, the source gives them in different places.

What was measured:
TBPS binding = assay: Steroid inhibition of TBPS binding
[1] = target: GABAA receptor (rat brain cortical membranes, [35S]-TBPS binding); settings: Table I-4; rat brain cortical membranes, 3 nM [35S]-TBPS, in the presence of 5 mM GABA
[2] = Table II-2, read-out: TBPS IC50 (μm)
[3] = Table IV-2, read-out: TBPS IC50

Structure (SMILES)	IC50 (TBPS binding; [2])	other results
COC[C@]1(O)C[C@H]2CC[C@@H]3[C@H](CC[C@]4(C)[C@@H](C(=O)Cn5cc(C#N)cn5)CC[C@@H]34)[C@H]2C1 [II-J11, 1-(2-((1S,3aS,3bR,5aR,7S,8aS,8bR,10aS)-7-hydroxy-7-(methoxymethyl)-10a-methylhexadecahydrodicyclopenta[a,f]naphthalen-1-yl)-2-oxoethyl)-1H-pyrazole-4-carbonitrile]	100 to 1000 nM	–
CC(=O)[C@H]1CC[C@H]2[C@@H]3CC[C@@H]4C[C@](C)(O)CCC[C@@H]4[C@H]3CC[C@]12C [II-E8a, 1-((1S,3aS,3bR,5aR,7R,10aS,10bR,12aS)-7-hydroxy-7,12a-dimethyloctadecahydrocyclohepta[a]cyclopenta[f]naphthalen-1-yl)ethan-1-one]	10 to 100 nM	–
CC(=O)[C@H]1CC[C@H]2[C@@H]3CC[C@H]4C[C@](C)(O)CCC[C@]4(C)[C@H]3CC[C@]12C [II-D3a, 1-((1S,3aS,3bR,5aS,7R,10aS,10bS,12aS)-7-hydroxy-7,10a,12a-trimethyloctadecahydrocyclohepta[a]cyclopenta[f]naphthalen-1-yl)ethan-1-one]	1000 to 10000 nM	–
CC(=O)[C@H]1CC[C@H]2[C@@H]3CC=C4CC[C@](C)(O)CC[C@]4(C)[C@H]3CC[C@]12C [II-C2a, 1-((1S,3aS,3bS,8S,10aR,10bS,12aS)-8-hydroxy-8,10a,12a-trimethyl-1,2,3,3a,3b,4,6,7,8,9,10,10a,10b,11,12,12a-hexadecahydrocyclohepta[a]cyclopenta[f]naphthalen-1-yl)ethan-1-one]	10 to 100 nM	–
C[C@]1(O)C[C@H]2CC[C@@H]3[C@H](CC[C@]4(C)[C@@H](C(=O)Cn5ccnn5)CC[C@@H]34)[C@H]2C1 [II-G12, 1-((1S,3aS,3bR,5aR,7S,8aS,8bR,10aS)-7-hydroxy-7,10a-dimethylhexadecahydrodicyclopenta[a,f]naphthalen-1-yl)-2-(1H-1,2,3-triazol-1-yl)ethan-1-one]	100 to 1000 nM	–
CC(=O)[C@H]1CC[C@H]2[C@@H]3CC=C4C[C@](C)(O)CCC[C@]4(C)[C@H]3CC[C@]12C [II-D2a, 1-((1S,3aS,3bS,7R,10aR,10bS,12aS)-7-hydroxy-7,10a,12a-trimethyl-1,2,3,3a,3b,4,6,7,8,9,10,10a,10b,11,12,12a-hexadecahydrocyclohepta[a]cyclopenta[f]naphthalen-1-yl)ethan-1-one]	1000 to 10000 nM	–
CC(=O)[C@H]1CC[C@H]2[C@@H]3C[C@H]4C[C@](C)(O)CC[C@@H]4[C@H]3CC[C@]12C [IV-B7, 1-((3S,3aS,5aR,5bS,8R,9aS,10aR,10bS)-8-hydroxy-3a,8-dimethylhexadecahydrocyclopenta[a]fluoren-3-yl)ethan-1-one]	–	IC50 (TBPS binding; [3]): 10 to 100 nM
CC(=O)[C@H]1CC[C@H]2[C@@H]3CC[C@H]4CC[C@](C)(O)CC[C@]4(C)[C@H]3CC[C@]12C [II-C3, 1-((1S,3aS,3bR,5aS,8S,10aS,10bS,12aS)-8-hydroxy-8,10a,12a-trimethyloctadecahydrocyclohepta[a]cyclopenta[f]naphthalen-1-yl)ethan-1-one]	10 to 100 nM	–
CC(=O)[C@H]1CC[C@H]2[C@@H]3CC[C@H]4C[C@](C)(O)CC[C@]4(C)[C@H]3CCC[C@]12C [V-A8, 1-((3aS,4S,6aS,6bR,8aS,10R,12aS,12bS)-10-hydroxy-3a,10,12a-trimethyloctadecahydronaphtho[2,1-e]azulen-4-yl)ethan-1-one]	–	IC50 (TBPS binding; Table V-2, read-out: TBPS IC50): 100 to 1000 nM
C[C@]1(O)CCC2=CC[C@H]3[C@@H]4CC[C@H](C(=O)Cn5cc(C#N)cn5)[C@@]4(C)CC[C@@H]3[C@@]2(C)CC1 [II-F3, 1-(2-((1S,3aS,3bS,8S,10aR,10bS,12aS)-8-hydroxy-8,10a,12a-trimethyl-1,2,3,3a,3b,4,6,7,8,9,10,10a,10b,11,12,12a-hexadecahydrocyclohepta[a]cyclopenta[f]naphthalen-1-yl)-2-oxoethyl)-1H-pyrazole-4-carbonitrile]	< 10 nM	–
C[C@@]1(O)CCC[C@@]2(C)[C@@H](CC[C@@H]3[C@@H]2CC[C@]2(C)[C@@H](C(=O)Cn4cc(C#N)cn4)CC[C@@H]32)C1 [II-D5a, 1-(2-((1S,3aS,3bR,5aS,7R,10aS,10bS,12aS)-7-hydroxy-7,10a,12a-trimethyloctadecahydrocyclohepta[a]cyclopenta[f]naphthalen-1-yl)-2-oxoethyl)-1H-pyrazole-4-carbonitrile]	10 to 100 nM	–
C[C@@]1(O)CC[C@H]2[C@H](C[C@@H]3[C@@H]2CC[C@]2(C)[C@@H](C(=O)Cn4cc(C#N)cn4)CC[C@@H]32)C1 [IV-A16, 1-(2-((3S,3aS,5aR,5bS,8R,9aR,10aR,10bS)-8-hydroxy-3a,8-dimethylhexadecahydrocyclopenta[a]fluoren-3-yl)-2-oxoethyl)-1H-pyrazole-4-carbonitrile]	–	IC50 (TBPS binding; [3]): 10 to 100 nM
C[C@@]1(O)CCC[C@H]2[C@H](CC[C@@H]3[C@@H]2CC[C@]2(C)[C@@H](C(=O)Cn4cc(C#N)cn4)CC[C@@H]32)C1 [II-E10a, 1-(2-((1S,3aS,3bR,5aR,7R,10aS,10bR,12aS)-7-hydroxy-7,12a-dimethyloctadecahydrocyclohepta[a]cyclopenta[f]naphthalen-1-yl)-2-oxoethyl)-1H-pyrazole-4-carbonitrile]	10 to 100 nM	–
COC[C@]1(O)C[C@H]2CC[C@@H]3[C@H](CC[C@]4(C)[C@@H](C(C)=O)CC[C@@H]34)[C@H]2C1 [II-J9, 1-((1S,3aS,3bR,5aR,7S,8aS,8bR,10aS)-7-hydroxy-7-(methoxymethyl)-10a-methylhexadecahydrodicyclopenta[a,f]naphthalen-l-yl)ethan-1-one]	100 to 1000 nM	–
C[C@@]1(O)CC[C@@]2(C)[C@@H](CC[C@@H]3[C@@H]2CCC[C@]2(C)[C@@H](C(=O)Cn4cc(C#N)cn4)CC[C@@H]32)C1 [V-A10, 1-(2-((3aS,4S,6aS,6bR,8aS,10R,12aS,12bS)-10-hydroxy-3a,10,12a-trimethyloctadecahydronaphtho[2,1-e]azulen-4-yl)-2-oxoethyl)-1H-pyrazole-4-carbonitrile]	–	IC50 (TBPS binding; Table V-2, read-out: TBPS IC50): 100 to 1000 nM
C[C@]12CC[C@@H]3[C@H]4CC[C@](C)(O)[C@@H]4CC[C@H]3[C@@H]1CC[C@@H]2C(=O)Cn1cc(C#N)cn1 [II-H19, 1-(2-((1S,3aS,3bR,5aR,6S,8aR,8bS,10aS)-6-hydroxy-6,10a-dimethylhexadecahydrodicyclopenta[a,f]naphthalen-1-yl)-2-oxoethyl)-1H-pyrazole-4-carbonitrile]	1000 to 10000 nM	–
C[C@@]1(O)CC[C@H]2[C@@H](CCC[C@@H]3[C@@H]2CC[C@]2(C)[C@@H](C(=O)Cn4cc(C#N)cn4)CC[C@@H]32)C1 [III-A15, 1-(2-((1S,3aS,3bR,6aS,8R,10aS,10bR,12aS)-8-hydroxy-8,12a-dimethyloctadecahydrobenzo[3,4]cyclohepta[1,2-e]inden-1-yl)-2-oxoethyl)-1H-pyrazole-4-carbonitrile]	–	IC50 (TBPS binding; Table III-1, read-out: TBPS IC50): 100 to 1000 nM
C[C@]12CC[C@@H]3[C@H]4CC[C@@](C)(O)[C@@H]4CC[C@H]3[C@@H]1CC[C@@H]2C(=O)Cn1cc(C#N)cn1 [II-H13, 1-(2-((1S,3aS,3bR,5aR,6R,8aR,8bS,10aS)-6-hydroxy-6,10a-dimethylhexadecahydrodicyclopenta[a,f]naphthalen-1-yl)-2-oxoethyl)-1H-pyrazole-4-carbonitrile]	1000 to 10000 nM	–
C[C@]1(O)C[C@H]2CC[C@@H]3[C@H](CC[C@]4(C)[C@@H](C(=O)Cn5nccn5)CC[C@@H]34)[C@H]2C1 [II-G11, 1-((1S,3aS,3bR,5aR,7S,8aS,8bR,10aS)-7-hydroxy-7,10a-dimethylhexadecahydrodicyclopenta[a,f]naphthalen-1-yl)-2-(2H-1,2,3-triazol-2-yl)ethan-1-one]	100 to 1000 nM	–
C[C@]1(O)CCC[C@H]2[C@H](CC[C@@H]3[C@@H]2CC[C@]2(C)[C@@H](C(=O)Cn4cc(C#N)cn4)CC[C@@H]32)C1 [II-E10, 1-(2-((1S,3aS,3bR,5aR,7S,10aS,10bR,12aS)-7-hydroxy-7,12a-dimethyloctadecahydrocyclohepta[a]cyclopenta[f]naphthalen-1-yl)-2-oxoethyl)-1H-pyrazole-4-carbonitrile]	100 to 1000 nM	–
COC[C@@]1(O)CC[C@H]2[C@@H](CC[C@@H]3[C@@H]2CC[C@]2(C)[C@@H](C(=O)Cn4nnnc4C)CCC[C@@H]32)C1 [I-G16a, 1-((1S,4aS,4bR,6aS,8R,10aS,10bR,12aS)-8-hydroxy-8-(methoxymethyl)-12a-methyloctadecahydrochrysen-1-yl)-2-(5-methyl-1H-tetrazol-1-yl)ethan-1-one]	–	IC50 [1]: 10 to 100 nM
C[C@@]1(O)CC[C@H]2[C@H](CC[C@@H]3[C@@H]2CC[C@]2(C)[C@@H](Nc4cccc(C#N)c4)CCC[C@@H]32)C1 [Compound I-10, 3-(((1S,4aS,4bR,6aR,8R,10aS,10bR,12aS)-8-hydroxy-8,12a-dimethyloctadecahydrochrysen-1-yl)amino)benzonitrile]	–	IC50 [1]: 10 to 100 nM
COC[C@@]1(O)CC[C@H]2[C@@H](CC[C@@H]3[C@@H]2CC[C@]2(C)[C@@H](C(=O)Cn4nnc(C)n4)CCC[C@@H]32)C1 [I-G16, 1-((1S,4aS,4bR,6aS,8R,10aS,10bR,12aS)-8-hydroxy-8-(methoxymethyl)-12a-methyloctadecahydrochrysen-1-yl)-2-(5-methyl-2H-tetrazol-2-yl)ethan-1-one]	–	IC50 [1]: < 10 nM
COC[C@@]1(O)CC[C@H]2[C@H](CC[C@@H]3[C@@H]2CC[C@]2(C)[C@@H](O)CCC[C@@H]32)C1 [I-L8, (1S,4aS,4bR,6aR,8R,10aS,10bR,12aS)-8-(methoxymethyl)-12a-methyloctadecahydrochrysene-1,8-diol]	–	IC50 [1]: 1000 to 10000 nM
